Among the data in article PMC9112662, “Scaffold stability and P14′ residue steric hindrance in the differential inhibition of FXIIa by Aedes aegypti trypsin inhibitor versus Infestin-4” (Bioscience Reports, 2022) are IC50, Ki and IC50 of inhibition of FXIIa activity, chromogenic assay (substrate S-2302) values, retold here.

Positions of bridges follow the written chain, without caps; N, C: chain ends. No end group written: not given here.

The first test concerns the target T1, FXIIa (Homo sapiens, UniProt P00748).
T1 construct: gene F12; human FXIIa (Merck)
T1 sequence (P00748 373-615): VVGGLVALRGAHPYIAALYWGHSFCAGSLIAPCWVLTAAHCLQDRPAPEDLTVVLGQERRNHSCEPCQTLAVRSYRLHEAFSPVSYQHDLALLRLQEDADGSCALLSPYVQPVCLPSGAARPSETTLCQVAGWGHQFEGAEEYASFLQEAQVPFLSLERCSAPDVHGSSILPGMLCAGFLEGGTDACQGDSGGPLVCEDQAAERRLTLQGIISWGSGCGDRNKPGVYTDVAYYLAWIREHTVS
The following applies: n = 3; read-out: IC50 values toward FXIIa. How it is done:
For IC50 determination, FXIIa was pre-incubated with different concentrations of inhibitors. The generation of p-nitroaniline (pNA) was determined by measuring the absorbance at 405 nm using a absorbance plate reader (Tecan; Männedorf, Switzerland). The reaction mixture consisted of 40 µl FXIIa (10 nM), 40 µl inhibitor, and 40 µl chromogenic substrate (1 mM). All reaction components were prepared in 50 mM Tris pH 7.4 containing 100 mM NaCl.
For IC50 calculations, log[inhibitor concentration] vs. percentage normalized inhibition was plotted using a non-linear regression curve function, created with Kaleidagraph 4.5.2 (Synergy Software; Reading, PA). All data represent the mean ± SD for triplicate values.
The term IC50 denotes the concentration that inhibits the measured activity by half. Consider “AaTI with C1C3 region of Inf4 and F10A (His-tagged) [AaTI_Inf4 C1C3+F10A]”, for which the IC50 was 610 ± 206 nM.

Turning to “AaTI with C1C3 and C5C6 regions of Inf4 and N27G (His-tagged) [AaTI_Inf4 C1C3+C5C6+N27G]”, the 50% inhibitory concentration (IC50) came out at 11.4 ± 3.1 nM.

Regarding “Aedes aegypti trypsin inhibitor, RSDAERGVCACPRIYMPVCGSNLKTYNNDCLLRCEINSDLGRANNLRKIADQACDNLTDNVNDFIPQEY (His-tagged) [Wild-type AaTI]”, the IC50 is > 10000 nM.

As for “AaTI with C1C3 region of Inf4 and N27G (His-tagged) [AaTI_Inf4 C1C3+N27G]”, the concentration for half-maximal inhibition (IC50) was 58 ± 14.8 nM.

Consider “AaTI with C1C3 region of Inf4 (His-tagged) [AaTI_Inf4 C1C3]”, for which the half-maximal inhibitory concentration (IC50) was 4680 ± 3830 nM.

Turning to “AaTI with C1C3 and C5C6 regions of Inf4 (His-tagged) [AaTI_Inf4 C1C3+C5C6]”, the half-inhibitory concentration (IC50) came to 113 ± 16.7 nM.

“Inf4 with C6 region replaced with that of AaTI (His-tagged) [Inf4_AaTI C6]”: the IC50 worked out at 6.2 ± 0.8 nM.

Regarding “AaTI with C1C3 and C3C4 regions of Inf4 (His-tagged) [AaTI_Inf4 C1C3+C3C4]”, the IC50 amounted to 147 ± 42.9 nM.

The target in the next test is FXIIa. The following applies: cited from earlier work.
What is called Ki is a dissociation constant, usually derived from enzyme kinetics or from competition with a known ligand. Take “KEVRNPCACFRNYVPVCGSDGKTYGNPCMLNCAAQTKVPGLKLVHEGRCQRSNVEQF (disulfide 7-32, 9-28, 17-49) [Wild-type Inf4]”: the Ki was 0.128 nM.

The next test deals with human Factor XIIa (human) (UniProt P00748).
Details: not given
Inf4_F10P (domain or fragment) had an IC50 of inhibition of FXIIa activity, chromogenic assay (substrate S-2302) of 11.6 nM.

Inf4_N12I (domain or fragment) returned an IC50 of inhibition of FXIIa activity, chromogenic assay (substrate S-2302) of 8.4 nM.

“Wild-type Infestin-4 (domain or fragment)” yielded an IC50 of inhibition of FXIIa activity, chromogenic assay (substrate S-2302) of 3.1 nM.

For Inf4_V14M (domain or fragment), the IC50 of inhibition of FXIIa activity, chromogenic assay (substrate S-2302) was found to be 9.9 nM.

For the next test, the target named is thrombin. The following applies: cited from earlier work. From the text: The Kazal-type inhibitor, Aedes aegypti trypsin inhibitor (AaTI), is a novel trypsin Kazal-type inhibitor from Aedes aegypti, the primary vector of mosquito-borne diseases like dengue. […] AaTI has a similar structure to that of Inf4 [19], and with only a 3-residue difference in the reactive-site loop sequence. The reactive-site loop sequence makes most-if not all-of the direct contacts with the protease and is thought to be the sole factor that govern the inhibitor specificity.
Consider “Aedes aegypti trypsin inhibitor, RSDAERGVCACPRIYMPVCGSNLKTYNNDCLLRCEINSDLGRANNLRKIADQACDNLTDNVNDFIPQEY (His-tagged) [Wild-type AaTI]”, for which the Ki was 320 nM.

In a further test the target is plasmin. To be noted: cited from earlier work.
Take “Aedes aegypti trypsin inhibitor, RSDAERGVCACPRIYMPVCGSNLKTYNNDCLLRCEINSDLGRANNLRKIADQACDNLTDNVNDFIPQEY (His-tagged) [Wild-type AaTI]”: the Ki was 3.8 nM.

On to “KEVRNPCACFRNYVPVCGSDGKTYGNPCMLNCAAQTKVPGLKLVHEGRCQRSNVEQF (disulfide 7-32, 9-28, 17-49) [Wild-type Inf4]”, for which the inhibitory constant (Ki) is 2.1 nM.
